# Assay results as given in a melting point compilation (Tetko et al.; mined from patent text by program, amines drawn as free bases though some values may be those of a salt).
row,Structure (SMILES),melting point
1,CC(C)OC(=O)c1ccc(OCc2ccccc2)cc1,62 to 63 °C
2,Cn1cc(C(=O)NCc2ccc(Cl)cc2)c(=O)c2cc(CCCCCO)oc21,151 to 152 °C
3,COCCc1c[nH]c(-c2ccc(OCc3ccccc3)cc2)n1,154 to 156 °C
4,CC(=O)c1ccc2c(c1)C(c1ccccc1F)=NC(C)(C)C(=O)N2C,68 °C
5,C=CCc1cc(C(=O)OC)ccc1O,78 to 82 °C
6,CCOC(=O)c1cc(NC(=O)NCC(=O)N2[C@@H](C(=O)OC(C)(C)C)CC[C@H]2c2ccccc2)ccc1O (racemic),150 °C
7,Cn1c(COc2ccc(CC3SC(=O)N(C(c4ccccc4)(c4ccccc4)c4ccccc4)C3=O)cc2)nc2ccc(Cl)nc21 (configuration not stated),97 to 99 °C
8,N#Cc1cc2nc(O)c(O)nc2cc1C#N,> 300 °C
9,CNC(=S)N(C)c1cncc(C(F)(F)F)c1,86 to 90 °C
10,O=c1ccc2ccc(OCC(O)CO)cc2o1 (configuration not stated),118 to 120 °C
11,O=C(CCBr)OCN1C(=O)NC(c2ccccc2)(c2ccccc2)C1=O,133 to 134 °C
12,COc1ccc(S(=O)(=O)N2C(=O)C(N)(c3cc(OC)ccc3OC)c3cc(Cl)ccc32)c(OC)c1 (configuration not stated),191 °C
13,COC1=CCC(Br)(OC)C=C1C(=O)C(Br)CCC1CCCCC1 (configuration not stated),96 to 104 °C
14,O=[N+]([O-])c1ccc(Nc2ccc(C(F)(F)C(F)(F)C(F)(F)C(F)(F)C(F)(F)C(F)(F)F)cc2)c([N+](=O)[O-])c1,145 to 146 °C
15,CN(O)C(=O)C(=Cc1ccc2ccccc2c1)c1ccc(Cl)cc1,140 to 142 °C
16,COc1cc(CCC(=O)C2=C(Cl)CCC2)cc(OS(=O)(=O)c2ccc(C)cc2)c1OC,73 °C
17,Cc1ccc2c(c1)c(N1CCNCC1)c(C#N)c(=O)n2Cc1ccccc1,152 °C
18,CCOc1cc2ncc(C#N)c(N(C)c3ccccc3)c2cc1OCC,153 to 155 °C
19,CC(C)C(C)CCC(C)C1CC(=O)C2=C3C(=O)CC4CC(OC(=O)c5ccccc5)CCC4(C)C3CCC21C (configuration not stated),176 to 177 °C
20,CCOc1ccc(C(=O)N2CC(C(=O)OC)N(S(=O)(=O)c3ccc(OC)cc3)Cc3ccccc32)cc1 (configuration not stated),187 to 190 °C
21,CC1CCC(C(=O)Nc2ccc(-c3ncc(-c4ccc(NC(=O)C5CCCCCC5)cc4)[nH]3)cc2)CC1 (configuration not stated),244 to 246 °C
22,OC(CNc1ccc(Cl)cc1)Cn1ccnc1 (configuration not stated),123 to 125 °C
23,Cc1oc(C=Cc2cccc(C(F)(F)F)c2)nc1CC#N,107 to 108 °C
24,CC[C@@H](C)[C@H](N)C(=O)N1CC(F)(F)C(F)(F)C1,> 250 °C

row,Structure (SMILES),melting point
1,CCCc1ccc2c(c1)N(c1ncnc3cc(OC)c(OC)cc13)CC2,140 to 141 °C
2,CCCc1nc(C(=O)C(C)(C)C)c(C#N)[nH]1,176 to 178 °C
3,C#Cc1c(NC)c(F)cc2c(=O)c(C(=O)O)cn(-c3cc(N)c(F)cc3F)c12,208 to 209 °C
4,Cc1sc(N)c(C(=O)c2ccccn2)c1C,136 to 139 °C
5,COC(=O)N=C(NC(=O)OC)SC,99 to 101 °C
6,CC(C)C(=O)NCCOc1ccc([N+](=O)[O-])cc1,102 to 103 °C
7,CCOC(=O)c1cn(C2CC2)c2c(Cl)c(F)c(F)cc2c1=O,154 to 157 °C
8,CCCCCCCCCCOc1cc(OCCCCCCCCCC)cc(C(=O)N(CC(=O)O)CC(=O)O)c1,81 to 84 °C
9,CSc1ncc(C(=O)NC2CC2)c(Nc2ccc3cn[nH]c3c2)n1,> 270 °C
10,CC(Nc1ncnc2c1ncn2C1OC(CO)C(O)C1O)c1ccccc1 (configuration not stated),165 to 167 °C
11,CS(=O)(=O)c1nccc(-c2nc(=O)c3ccccc3s2)n1,270 °C
12,O=c1oc(C=Cc2ccccc2)nc2ccccc12,145 to 147 °C
13,CC=Cc1ccc2c(c1)C(=O)N(c1ccc(C(C)C(=O)OC(C)(C)C)cc1)C2 (configuration not stated),125 to 130 °C
14,NC(=O)NCc1cccc2c1C(=O)N(C1CCC(=O)NC1=O)C2=O (configuration not stated),292 to 294 °C
15,CCCOc1cccc(CO)c1-c1ccc(OC)cc1O,102 to 103 °C
16,CC(C)n1cnc2c(NCc3ccc(O)cc3O)nc(NC[C@@H](C)O)nc21,189 to 191 °C
17,O=[N+]([O-])c1ccc(-c2cnc3nc(S(=O)(=O)Cl)nn3c2)cc1,159 to 167 °C
18,CC(C)CCCC(C)C1CCC2C3CC=C4CC(Br)CCC4(C)C3CCC12C (configuration not stated),99.5 to 100 °C
19,CCCCOc1ccc(C(=O)NCCC(=O)O)cc1,144 to 146 °C
20,CCCNc1ccc(Cl)cc1Cl,121 °C
21,CCCN(CCC)Cc1nnc(-c2ncn3c2[C@@H]2CCCN2C(=O)c2c(Cl)cccc2-3)o1,158 to 160 °C
22,O=C(NCCCCO)c1ccc2c(c1)OCO2,95 to 98 °C
23,CC(C)c1ccc(F)c(C(C)C)c1NC(=O)CN1CCN(CCSc2nc3ccccc3o2)CC1,142 to 144 °C
24,COC(=O)c1ccc2oc3c(c(=O)c2c1)CCCC3=Cc1ccccc1,168 to 170 °C

row,Structure (SMILES),melting point
1,CCCc1c(OCCCOc2cccc3c2CCCC3)ccc2c1OC(CCCC(=O)O)(CCCC(=O)O)CC2=O,138 °C
2,O=C(O)c1[nH]c(=O)n2c1CN=C(c1ccccc1Cl)c1cc(Cl)ccc1-2,236 to 238 °C
3,CC(COc1c(-c2ccccc2)c(=O)oc2ccccc12)CN1CCOCC1 (configuration not stated),113 °C
4,O=C1c2ccccc2S(=O)(=O)N1CS(=O)(=O)c1ccccc1,169 to 171 °C
5,CCCc1c(OCCCCC(=O)O)ccc(C(C)=O)c1O,97 to 102 °C
6,CCCNC1Cc2ccc(C3=NNC(=O)CC3)cc2C1 (configuration not stated),137 to 138 °C
7,COC(=O)c1ccc(/C=C/c2nc(-c3ccccc3)c(C)s2)cc1,156 to 157 °C
8,CCOC(=O)C1=C(C)Nc2cc(=O)[nH]n2C1c1cccc(Cl)c1Cl (configuration not stated),213 to 218 °C
9,CC(=O)C(=Cc1cccc([N+](=O)[O-])c1)P(=O)(OCC(C)C)OCC(C)C,81 to 82 °C
10,COc1ccc2c(c1)c(-c1cc3nccnc3[nH]1)cn2Cc1ccccc1,240 to 244 °C
11,Cn1c(COc2ccc(C=O)cc2)nc2cccnc21,124 to 125 °C
12,NC(=O)CN1CCN(c2ccc(NC(=O)c3ccccc3-c3ccc(C(F)(F)F)cc3)cc2)CC1,226 to 228 °C
13,COc1ccc(-c2[nH]nc3c2C(=O)c2c(NC(=O)Cc4ccc(Cl)cc4)cccc2-3)cc1,238 °C
14,O=S1(=O)NCN(C2CC2)c2cc(F)c(Cl)cc21,155 to 158 °C
15,CC(=O)Nc1cc(Br)c(O)c(Br)c1,155 to 156 °C
16,COC(=O)C(Cl)=Cc1ccc(Cl)cc1,78 to 80 °C
17,N#CCn1nnc2cc3c(cc2c1=O)OC1CCCN1C3=O (configuration not stated),210 to 212 °C
18,CC(C)Nc1nc2ccccn2c(=O)c1-c1ccc(NC2CCN(C(=O)OC(C)(C)C)C2)cc1 (configuration not stated),210 to 212 °C
19,CC(=O)Nc1ccc(F)c(F)c1,127 to 128 °C
20,NC(=O)C(Nc1ccc(Cl)cc1)c1c(Cl)cccc1Cl (configuration not stated),178 °C
21,CCOC(=O)C1CCN(C(=O)c2ccc(/C=C/C(=O)O)cc2)CC1,165 °C
22,O=C1Nc2cc([N+](=O)[O-])ccc2OC1CCO (configuration not stated),174 to 175 °C
23,CC(C)N(C(=O)CC(c1ccccc1)c1cc(Br)ccc1OCc1ccccc1)C(C)C (configuration not stated),102 °C
24,CC(C)C[C@H](NC(=O)[C@H](Cc1ccccc1)NC(=O)CCC(=O)O)C(=O)O,156 to 158 °C
